Source: patent US8568754B2, “Low-emission formaldehyde donor preparations and use thereof” (Air Liquide Sante (International), priority 2002, dated 2013)

Conditions: not told

efflux time from a DIN beaker 4 mm: 22 s | efflux time from the DIN beaker 6 mm: 6 s
SMILES: CC1CN(CN2COC(C)C2)CO1 (centres unmarked) [No. 1, N,N′-methylenebis(5-methyloxazolidine)]
